Assay results as given in US11638427B2, “Methods and compositions for altering secondary metabolites in plants” (Impello Biosciences, Inc, priority 2020, dated 2023).

Experiments:
seedling mold = test: Fungal plug growth on jasmonate-infused PDA plates; type: cell-based, Trichoderma ghanense; settings: all concentrations (1 mM, 4.25 mM, 10 mM) in PDA; 72 hours and 10 days
Method: (§1) MDJ (TCI, CAS No.: 24851-98-7) and CJ were infused into potato dextrose agar (PDA, VWR Cat No.: 90003-494) petri dishes (100×15 mm VWR, Cat No: 25384-094) at concentrations ranging from 1 mM, 4.25 mM, and 10 mM. Each treatment was prepared using a technical grade stock solution of pure chemical (CJ or MDJ) diluted with TWEEN®-20 (VWR, CAS No.: […]). Culturable oyster mushroom and seedling mold served to create fungal mycelial plugs using a sterile 1 mL pipette tip (Eppendorf, Cat No.: 022491458) held upside down. The tips were used to make circle excisions (i.e., fungal plugs) from a mycelial mat grown on PDA with no biochemical infusions. Fungal pugs were then transferred to PDA infused with varying concentrations of CJ or MDJ, and control plates (no CJ or MDJ infusion) to monitor fungal growth at room temperature over time.
To compare the efficacy of MDJ and MeJA at inhibiting the same seedling mold as used in the experiment above, a second experiment was conducted using PDA plates infused with either MDJ or MeJA at different concentrations. All plates were generated and inoculated as described above and incubated at room temperature under identical conditions. Shown in FIGS. 9A-9C are plates of seedling mold 72 hours post fungal inoculation. Control plates are shown on the top row, followed by concentrations of MeJA (left) and MDJ (right) in duplicate at 1 mM (FIG. 9A), 4.25 mM (FIG. 9B), and 10 mM (FIG. 9C). […] Subsequent sequence analysis identified the “seedling mold” as Trichoderma ghanense.

oyster mushroom = test: Fungal plug growth on jasmonate-infused PDA plates; type: cell-based; settings: all concentrations (1 mM, 4.25 mM, 10 mM) in PDA; 72 hours and 10 days
Method: as §1

[1] = tested on: marijuana variety Lemon Creamsicle; test: Foliar spray of CJ or MDJ on high-THC marijuana in greenhouse, cannabinoid analysis; type: in vivo, Cannabis spp.; settings: 7.5 mM foliar spray every 14 days, four treatments
Method: Applicant's previous experiments investigated the effects of jasmonate-type elicitors MeJA, MDJ, and CJ on hemp (high fiber) and high-CBD, (low-THC) varieties of Cannabis. […] Here, the effects of MDJ and CJ application on a high-THC variety in a controlled environment was investigated. High-THC, low-CBD marijuana variety “Lemon Creamsicle” (LC), was grown in a greenhouse setting. LC was used as a plant model due to its historically consistent metabolite profile in the greenhouse environment, making it a stable, known, and reliable variety.
A four-block plant trial was implemented with a population of N=12 plants and treatment group sizes of n=4. The treatment and control groups were defined as follows: Control=water+0.1% TWEEN®-20 aqueous foliar spray, Treatment 1=[7.5 mM] CJ+0.1% TWEEN®-20 aqueous foliar spray, Treatment 2=[7.5 mM] MDJ+0.1% TWEEN®-20 aqueous foliar spray. A standardized concentration of [7.5 mM] for both CJ and MDJ applications was chosen due to its performance in Applicant's past research. All treatment solutions were prepared the day of the application in equal volumes from pre-measured quantities of the stock materials to ensure consistency, i.e., appropriate volumes of CJ or MDJ were combined with appropriate volumes of TWEEN®-20 for each experimental treatment, stored in a sealed centrifuge tube, and diluted in the appropriate amount of water immediately prior to application. Separate sprayers were used for each treatment and control sprays to avoid cross-contamination.
All plants in the trial were produced as asexual clone stock taken from the same mother plant at the same time to ensure homogeneity. All plants were rooted and grown in accordance with the production practices typical to this greenhouse operator prior to plant selection for the experiment. Due to the layout of the cultivation system, which features immovable hydroponic “pots” that house the plant throughout the entire flowering (i.e., reproductive) phase, all plants included in the experiment were selected from a set section of the greenhouse after final transplant into the hydroponic system and grouped in a complete randomized block design accordingly.
After defining the plants to include in the experiment, which were organized in two (2) rows of six (6) plants side-by-side in the hydroponic system, the experimental blocks were defined as groups of three plants, and a research randomizer tool (randomizer.org) was used to generate a randomized arrangement of plants in each group. Using a blocked design in this setting helped account for the immovable nature of the plants and the slight, if any, environmental differences (like natural sunlight, shading from other plants, and corner/edge effect) that existed in the small experimental area. Blocking the experimental arrangement also allowed for improved statistical analysis and resolution considering the small sample size and close proximity of the experimental plants.
After labelling each plant in the experiment with the appropriate group label (Control, T1 [CJ], or T2 [MDJ]), the plants were allowed to grow normally between treatment applications, which were performed every 14 days for a total of four (4) treatments throughout the flowering cycle, which lasted approximately eight (8) weeks. The first treatment occurred seven (7) days after the onset of the flowering cycle, which was dictated by day-length control. Care was taken with each treatment application to minimize overspray onto non-target neighboring plants, and physical barriers were temporarily installed between plants during treatment sprays to aid in this effort. These barriers were removed following treatment sprays when the foliage was no longer visibly wet from the treatment and/or control foliar sprays. […]

[2] = tested on: high-CBD hemp varieties Stormy Daniels and BaOX; test: Field foliar applications of MDJ, MeJA and CJ on high-CBD hemp, cannabinoid analysis; type: in vivo, Cannabis spp.; settings: 7.5 mM foliar, four applications every 14 days in flowering
Method: However, MDJ is not known to have any significant bioactivity in planta and is not an endogenously produced phytohormone in cannabis, so it was unknown whether MDJ would afford the same functionality as MeJA. Similarly, CJ has likewise been relatively under-investigated as a plant elicitor despite being a decarboxylation product of Jasmonic Acid. Here, the effect of MDJ and CJ were analyzed (in addition to MeJA) in order to determine any difference in the effect of these treatments on field-grown high-CBD hemp varieties.
A hemp field experiment was conducted during the flowering phase of plant development in a private research field located in North Carolina. Sixty (60) plants from two distinct plant variety populations, Stormy Daniels and BaOX were selected for the trial. Each group of 60 plants was randomly divided into three groups of 20 plants and labeled accordingly to indicate the treatment group (T1, T2, T3). All plants were cultivated identically and subjected to approximately the same environmental conditions. Control, untreated plants were taken from the same field. Plants were treated according to treatment group, and each treatment group was subjected to four (4) applications of its respective treatment, with the first treatments applied on what was considered to be the first day of the flowering phase and repeated then again every successive 14 days up until just prior to harvest. Treatments were as follows: Control group=Control, Treatment 1=MDJ, Treatment 2=MeJA, Treatment 3=CJ.
All treatments were prepared in a stock (concentrated, non-aqueous) form by Impello Biosciences in their lab in Loveland, Colo. and labelled respectively prior to the start of the experiment. All treatments were prepared at a high stock concentration that allowed dilution by the applicator with 2 liters of water to a final 7.5 mM concentration of active ingredient (i.e., MeJA, MDJ, or CJ) for each treatment; 15-mL centrifuge tubes were used as preparation and storage vessels for each of the treatments. Preparation of the stock solutions ensured that the applicator could store the solutions prior to use at 4° C. to minimize degradation and allow for dilution immediately prior to use. In the stock containers, 2 mL of TWEEN®-20 was added to each respective elicitor compound as an emulsifier in order to reach a final oil-in-water emulsion once diluted with a concentration of 7.5 mM active ingredient and 0.1% surfactant (i.e., TWEEN®-20) v/v.
Plants were grown to maturity and 5 plants from each treatment and control group were sampled on Sep. 23, 2019. Care was taken to ensure samples were similar in appearance and spatial location between plants to minimize unintended variance in sample quality. The apical cola for each plant was harvested, and specifically, the top 3″ of the main cola. Yield data was not collected in this study, but no obvious differences in plant size or appearance were noted. Samples were submitted for chemical analysis (Avazyme, Inc, NC).
All models were linear models fit with Group (treatment) as the independent variable and the response variable was the corresponding compound. Data was filtered and comparison between treatments were conducted using the emmeans package and Tukey HSD for post-hoc corrections. Statistical significance was defined by a level of significance of p<0.05 in the Tukey test. Total cannabinoids included CBN, Δ9-THC, CBDV, CBG, CBD, CBC, CBDA, CBGA, THCA, and THCV. Total THC and total CBD were calculated by accounting for the additional weight of the carboxyl group in the acidic forms and adding those to the neutral/non-acidic forms.

Structure (SMILES): CC/C=C\CC1=C(C)CCC1=O [CJ, cis-jasmone]
- seedling mold growth compared to control (seedling mold): showed inhibition
- Oyster mushroom fungal growth compared to control (oyster mushroom): showed inhibition
- CBGA average relative percent increase compared to the Control group [1]: 11.22%
- THCA average relative percent increase compared to the Control group [1]: 1.13%
- Total Cannabinoids average relative percent increase compared to the Control group [1]: 1.17%
- Total THC average relative percent increase compared to the Control group [1]: 1.03%
- CBDA increase relative to the control group [2]: 23.61%
- THCA increase relative to the control group [2]: 27.23%
- Total CBD increase relative to the control group [2]: 23.64%
- Total Cannabinoids increase relative to the control group [2]: 22.92%
- Total THC increase relative to the control group [2]: 27.09%
